According to patent US10555965B2, “Environment-responsive hyaluronic acid nanoparticles” (Industry-University Cooperation Foundation Hanyang …, priority 2015, dated 2020):

Experiments:
[1] = test system: HepG2 cells; test: Apoptosis/necrosis by flow cytometry (Annexin-V-FITC/PI); format: cell-based; settings: 12 hours treatment, nanoparticles 1 mg/mL or 2DG 0.25 mg/mL
Description: The 2-deoxy-D-glucose was used as a glycolytic inhibitor. The ATP content was measured using an ATP Colorimetric/Fluorometric Assay Kit (Biovision). Lactate secretion was quantified using an EnzyChromTM L-Lactate Assay Kit (Bioassay). In cell fate, an effect of the HA-PBA nanoparticles on the inhibition of glycolysis was examined using a flow cytometer (BD FACS Caliber). Briefly, the HepG2 cells were treated with the HA-PBA nanoparticles or 2DG for 12 hours. An Annexin-V-FITC antibody and propidium iodide (PI) were used as markers for apoptotic and necrotic cell death. The HepG2 cells were seeded in a 24-well tissue culture plate at a density of 1×10^4 cells/well, and incubated at 37° C. for 24 hours under 5% CO2 conditions. The cells were washed with PBS, and treated for 8 hours with a low or high glucose medium including the HA-PBA nanoparticles (1 mg/mL) having a degree of […]. Also, prior to treatment with the HA-PBA nanoparticles, the cells were pretreated with a hyaluronate (2.5 mg/mL) dissolved in a low glucose medium. The medium was replaced with a fresh medium daily. At a predetermined point of time, the cells were treated with EZ-Cytox for 2 hours, and the optical density at 450 nm was measured using a UV/VIS spectrophotometer. The growth rate of the cells was calculated from a change in the number of the cells in 3 days of incubation. […]

[2] = test system: HepG2 tumor; test: In vivo therapeutic effect (liver cancer growth inhibition); design: species or system mice; settings: intravenous, 5 times for a week, monitored 17 days
Description: To evaluate a therapeutic effect of the HA-PBA nanoparticles, the tumor-bearing mouse model of Experimental Example 7 was prepared.
The HA-PBA nanoparticles (20 mg kg), paclitaxel (10 mg/kg), and PBS were intravenously injected into the caudal veins of the tumor-bearing mice (injected 5 times for a week). Changes in tumor volume were monitored for 2 weeks (n=7). Tumor tissues were extracted from the mice, and embedded into an optimal cutting temperature (OCT) compound. The tumor tissues were cut into sections (12 μm thick), and stained with hematoxylin and eosin (H&E) and a DeadEnd™ colorimetric TUNEL system (Promega, USA).
When the tumor volumes of the mice reached approximately 90 mm3, the HA-PBA nanoparticles, paclitaxel, and PBS were injected into the mice.

Row | Compound | in-late apoptotic HepG2 cells ([1]; control 5.77%) [%] | apoptotic HepG2 cells ([1]; control 6.76%) [%] | weight loss [2] | tumor growth rate compared to PBS-treated group ([2]; nanoparticles 20 mg kg, paclitaxel 10 mg/kg)
1 | O=CC[C@@H](O)[C@H](O)[C@H](O)CO [2DG, 2-deoxy-D-glucose] | 4.65 | 18.81 |  | 
2 | CC(=O)O[C@H]1C(=O)[C@@]2(C)[C@H]([C@H](OC(=O)c3ccccc3)[C@]3(O)C[C@H](OC(=O)[C@H](O)[C@@H](NC(=O)c4ccccc4)c4ccccc4)C(C)=C1C3(C)C)[C@]1(OC(C)=O)CO[C@@H]1C[C@@H]2O [paclitaxel] |  |  | No weight loss | inhibited tumor growth rate
